Patent US11130902B2, “Gas hydrate inhibitors” (Lamberti SPA, priority 2016, dated 2021)

Tests used:
[1] = Corrosion tests, Linear Polarization Resistance (LPR); conditions: 10 ppm by volume inhibitor, synthetic brine, CO2, 200 ppm H2S, 80° C., compared to the blank; for % Protection, 1 hour: after 1 hour; for % Protection, 16 hours: after 16 hours
Description: The Linear Polarization Resistance (LPR) measurements were made with a Gamry Electrochemical Instrument system.
The LPR corrosion tests were conducted in 1 L Pyrex jacketed cells. 900 mL of synthetic brine (50/50 v/v 4.0% Seasalt water/Fresh Water) were loaded in the cell placed on a magnetic stirrer, deaerated overnight with CO2 and, finally, saturated with 200 ppm H2S gas just before testing. A clean C1018 Mild Steel rod was inserted in the corrosion cell assembly as sample probe. A graphite rod was used as the counter electrode. The temperature of the solution was brought to 80° C. for the duration of the tests and CO2 was continuously purged at a constant flow rate. The (Test 4) inhibitors were added at 10 ppm by volume of test solution.
The results are reported in Table 4 as % of protection after a fixed period of time compared to the blank, the test solution without any inhibitor, which is considered 100% corrosion.

[2] = Gas hydrate inhibition test (Rocking Cell RC5); design: key: FAIL: The ball is stuck and/or large agglomerations or solid crystals and/or visible deposits on the cell walls.; PASS: The ball is free; solid crystals might be present, but agglomerates (large or small) break up with agitation; conditions: 2% by weight inhibitor, 4° C., visual evaluation after 16 hours shut-in; for gas hydrate inhibition, Test 2: 20/80 v/v deionized water/diesel; for gas hydrate inhibition, Test 1: 50/50 v/v 4% wt seasalt water/diesel
Description: Gas Hydrate Inhibition Test
The performances of the gas hydrate inhibitors of the invention were evaluated with a Rocking Cell RC5 by PSL Systemtechnik.
Test Fluids • Hydrocarbon: Diesel • Aq. Phase: 4% wt seasalt water or deionized water • Gas: Mix of methane, ethane, propane and butane (various isomers)
The sapphire test cells, containing a stainless steel ball, were filled with the fluids (see Table 1) and 2% by weight of inhibitor and pressurized with the gas mixture.
Each cell was the subjected to a cycle of cooling and rocking consisting of three steps: 1) flowing condition, 2) shut-in and 3) re-start flowing condition. • 1) The pressurized cells were cooled down to 4° C. over a period of 5 hours while rocking. After reaching 4° C., the cells were rocked for 12 hours. • 2) The rocking was stopped and the test cells were kept in horizontal position (shut-in) for 16 hours. • 3) At the end of the shut-in period, rocking was re-started for 4 hours. Finally the cells were heated back up to 20° C.
At the beginning of the third step, the content of the cells was visually evaluated.
Each cycle was replicated three times and the results registered.
The results of the gas hydrate inhibition tests (Table 2) are reported according to the following scale: • FAIL: The ball is stuck and/or large agglomerations or solid crystals and/or visible deposits on the cell walls. • PASS: The ball is free; solid crystals might be present, but agglomerates (large or small) break up with agitation.

[3] = Foaming power tests (Waring Blender); format: physicochemical; conditions: 30 seconds at 8000 rpm; for FS (foam stability, time to regenerate 50 mL of liquid), Test 4 / FV (foam volume), Test 4: 1% by weight solution in 4% sea salt water solution; for FS (foam stability, time to regenerate 50 mL of liquid), Test 3 / FV (foam volume), Test 3: 1% by weight solution in deionized water
Description: The foam volume (FV) and the foam stability (FS) were determined by stirring for 30 seconds at high speed (8000 rpm) with a Waring Blender 100 mL of a 1% by weight solution of the inhibitors in deionized water (Test 3) or in a 4% sea salt water solution (Test 4). The foamed composition is then transferred into a graded cylinder for the evaluation of the foam volume and the stability of the foam.
FV represent the volume in mL of foam at the end of the stirring. FS is the time in seconds required to the foamed solution to regenerate 50 mL of liquid. The longer the time, the higher the stability of the foam.

Row | Substance | % Protection, 1 hour [1] [%] | % Protection, 16 hours [1] [%] | gas hydrate inhibition, Test 2 [2] | gas hydrate inhibition, Test 1 [2] | FS (foam stability, time to regenerate 50 mL of liquid), Test 4 [3] [s] | FV (foam volume), Test 4 [3] [mL] | FS (foam stability, time to regenerate 50 mL of liquid), Test 3 [3] [s] | FV (foam volume), Test 3 [3] [mL]
1 | benzylcocodimethyl ammonium chloride | 79.7 | 89.5 | FAIL | FAIL | 215 | 430 | 260 | 480
2 | N,N-dibutyl-N-ethyl-cocooxyethyl ammonium chloride | 78.9 | 87.9 | – | – | 59 | 172 | 97 | 210
3 | N,N-dibutyl-N-ethyl-soyaoxyethyl ammonium ethyl sulfate | – | – | – | – | 118 | 230 | 180 | 320
4 | N,N-dibutyl-N-ethyl-cocooxyethyl ammonium ethyl sulfate | 81.4 | 90.2 | PASS | PASS | 46 | 160 | 70 | 185
